Laboratory results from patent US20100247491A1, “Potentiation of Stem Cell Homing and Treatment of Organ Dysfunction or Organ Failure” (priority 2007, published 2010).

Key:
MSCs = assay: MSC migration towards SDF-1 in a transwell culture system; format: cell-based, Fisher 344 rats; conditions: pre-incubation of MSCs with the agent, FIG. 7
Text: AMD 3100 is a non-peptide antagonist of CXCR4 and Diprotin A (Ile-Pro-Ile, Peptides International, Louisville, Ky.) is a commonly used example of a CD26 inhibitor. […] Thus, the invention provides for the use of a CD26 inhibitor for the treatment of renal organ dysfunction (i.e., damage or injury), particularly, in combination with the use of MSCs. For example, it is believed that inhibition of SDF-1 inactivation will increase the homing of administered MSCs to an injured kidney and potentiate renal repair.
Bone marrow-derived MSCs from Fisher 344 rats were used for in vitro experiments. […] In addition, cultured MSCs express functional CD26 and can effectively inactivate SDF-1. […] As a result of the in vitro data, it is reasoned that inhibiting CD26 will augment the SDF-1-CXCR4 mediated chemotactic activity of MSCs in vivo. Thus, the invention relates to pre-treatment or co-administration of MSCs with a CD26 inhibitor to augment the homing and renal protective functions of MSCs administered to a subject to treat a disease involving organ failure or organ dysfunction.

rats with I/R ARF = assay: I/R ARF rat model, CD26 inhibitor given before MSCs (Example II); format: in vivo; conditions: MSCs following Diprotin A
Text: All procedures involving animals are approved by the respective Institutional Animal Care and Use Committees of the University of Utah, Veterans Affairs Medical Center (Salt Lake City, Utah), Indiana University (Indianapolis, Ind.), and the University of Hamburg (Hamburg, Germany). Animals are housed at a constant temperature and humidity, with a 12:12-h light-dark cycle, and have unrestricted access to a standard diet and tap water. Adult male Sprague-Dawley (SD) and Fisher 344 (F344) rats weighing 200-300 g are preferably used (Charles River, Wilmington, Mass.).
I/R ARF is induced in isoflurane-anesthetized animals, and rectal temperature is maintained at 37° C. After a midabdominal laparatomy, kidneys are exposed and renal pedicles are clamped with atraumatic vascular clamps for about 40 min. […]
Quantification of cell numbers. CFDA-labeled green fluorescing cells are examined and quantified in kidneys at 2, 24, 36, 48, 60, and/or 72 h after ARF and cell infusions. Nuclei are stained with either Hoechst 33342 or propidium iodide, and nuclei are counted in at least three high-power fields (HPF) per section based on a calibrated confocal micrometer measurement bar. After this, total cell numbers of the studied tissue sections are calculated based on the number of nuclei and surface area of the section.
Renal function may be assessed by serum creatinine and/or blood urea nitrogen levels. […]

Sca-1+lin-donor cells = conditions: donor cells treated with 5 mM Diprotin A for 15 minutes before transplant; FIG. 4, Christopherson II et al. (2004); cited from earlier work

## c1cc(CN2CCCNCCNCCCNCC2)ccc1CN1CCCNCCNCCCNCC1 [AMD 3100]
MSCs
  MSC migration towards SDF-1: decreased

## H-Ile-Pro-Ile-OH [Diprotin A]
Rats with I/R ARF; by at least days 2 and/or 3, relative to MSC only treated animals
  renal function (serum creatinine and/or blood urea nitrogen): significantly improved renal function
Rats with I/R ARF; relative to MSC only treated animals
  migration of MSCs to the kidney: increased migration of MSCs to the kidney
Sca-1+lin-donor cells
  homing of HSCs from the circulation to bone: can increase homing of HSCs
MSCs
  MSC migration towards SDF-1: significantly increased
